Source: patent publication US12247031B2, “Cyclobutyl pyrazolopyrimidine PDE9 inhibitors” (Merck Sharp & Dohme LLC, priority 2018, dated 2025)

Target: Human PDE9 (PDE9A2) (Homo sapiens (Human), UniProt O76083)
Experiment: PDE9 IMAP fluorescence polarization assay
Type: biochemical
Settings: human PDE9A2, FAM-cGMP substrate 50 nM, IMAP FP, apparent inhibition constant
Protocol: The activity of the compounds in accordance with the present invention as PDE9 inhibitors may be readily determined without undue experimentation using a fluorescence polarization (FP) methodology that is well known in the art (Huang, W., et al., J. Biomol Screen. 2002, 7: 215).
In a typical experiment the PDE9 inhibitory activity of the compounds of the present invention was determined in accordance with the following experimental method.
Human PDE9 (PDE9A2, GenBank Accession No. NM_001001567), full length with N-terminal GST tag, was purchased from BPS Bioscience. The fluorescence polarization assay for cyclic nucleotide phosphodiesterases was performed using an IMAP® FP kit supplied by Molecular Devices, Sunnyvale, CA (product #R8139). IMAP® technology has been applied previously to phosphodiesterase assays (Huang, W., et al., J. Biomol Screen. 2002, 7: 215).
Fluorescence polarization (mP) was calculated from the parallel (S) and perpendicular (P) fluorescence of each sample well and the analogous values for the median control well, containing only substrate (So and Po), using the following equation: Polarization (mP)=1000*(S/So−P/Po)/(S/So+P/Po).
Dose-inhibition profiles for each compound were characterized by fitting the mP data to a four-parameter equation given below. The apparent inhibition constant (KI), the maximum inhibition at the low plateau relative to “100% Inhibition Control” (Imax; e.g. 1=>same as this control), the minimum inhibition at the high plateau relative to the “0% Inhibition Control” (Imin, e.g. 0=>same as the no drug control) and the Hill slope (nH) are determined by a non-linear least squares fitting of the mP values as a function of dose of the compound using an in-house software based on the procedures described by Mosser et al., JALA. 2003, 8: 54-63, using the following equation: […]

Row | SMILES | Ki [nM]
1 | C[C@@H](c1ccc(C(F)(F)F)nc1)n1nc(C#N)c2c(=O)[nH]c(C3CCC3n3cc(C(F)(F)F)cn3)nc21 (stereo partly drawn) [Example 31, 4-oxo-6-(2-(4-(trifluoromethyl)-1H-pyrazol-1-yl)cyclobutyl)-1-((S)-1-(6-(trifluoromethyl)pyridin-3-yl)ethyl)-4,5-dihydro-1H-pyrazolo[3,4-d]pyrimidine-3-carbonitrile] | 0.399
2 | CC(c1ccc(C(F)(F)F)nc1)n1nc(C#N)c2c(=O)[nH]c(C3CCC3N3CCOCC3=O)nc21 (stereo not shown) [Example 30, 4-oxo-6-(2-(3-oxomorpholino)cyclobutyl)-1-(1-(6-(trifluoromethyl)pyridin-3-yl)ethyl)-4,5-dihydro-1H-pyrazolo[3,4-d]pyrimidine-3-carbonitrile] | 608
3 | C[C@@H](c1ccc(C(F)(F)F)nc1)n1nc(C#N)c2c(=O)[nH]c(C3CCC3c3ccccn3)nc21 (single isomer, unassigned) [Example 8] | 0.034
4 | CC(C1CCOCC1)n1nc(C#N)c2c(=O)[nH]c(C3CCC3n3cc(C#N)cn3)nc21 (single isomer, unassigned) [Example 48, 6-(2-(4-cyano-1H-pyrazol-1-yl)cyclobutyl)-4-oxo-1-(1-(tetrahydro-2H-pyran-4-yl)ethyl)-4,5-dihydro-1H-pyrazolo[3,4-d]pyrimidine-3-carbonitrile] | 366
5 | CC(c1ccc(C(F)(F)F)nc1)n1nc(C#N)c2c(=O)[nH]c(C3CCC3n3cc(C#N)cn3)nc21 (single isomer, unassigned) [Example 24, 6-(2-(4-cyano-1H-pyrazol-1-yl)cyclobutyl)-4-oxo-1-(1-(6-(trifluoromethyl)pyridin-3-yl)ethyl)-4,5-dihydro-1H-pyrazolo[3,4-d]pyrimidine-3-carbonitrile] | 22.3
6 | Cc1nnc(C2CCC2c2nc3c(c(C#N)nn3C(C)c3ccc(C(F)(F)F)nc3)c(=O)[nH]2)o1 (single isomer, unassigned) [Example 2, 6-(2-(5-methyl-1,3,4-oxadiazol-2-yl)cyclobutyl)-4-oxo-1-(1-(6-(trifluoromethyl)pyridin-3-yl)ethyl)-4,5-dihydro-1H-pyrazolo[3,4-d]pyrimidine-3-carbonitrile] | 118
7 | C[C@@H](c1ccc(C(F)(F)F)nc1)n1nc(C#N)c2c(=O)[nH]c(C3CCC3n3cc(C(F)(F)F)cn3)nc21 (stereo partly drawn) [Example 43, 4-oxo-6-(2-(4-(trifluoromethyl)-1H-pyrazol-1-yl)cyclobutyl)-1-((S)-1-(6-(trifluoromethyl)pyridin-3-yl)ethyl)-4,5-dihydro-1H-pyrazolo[3,4-d]pyrimidine-3-carbonitrile] | 4.75
8 | Cc1nnc(C2CCC2c2nc3c(c(C#N)nn3C(C)c3ccc(C(F)(F)F)nc3)c(=O)[nH]2)o1 (single isomer, unassigned) [Example 5, 6-(2-(5-methyl-1,3,4-oxadiazol-2-yl)cyclobutyl)-4-oxo-1-(1-(6-(trifluoromethyl)pyridin-3-yl)ethyl)-4,5-dihydro-1H-pyrazolo[3,4-d]pyrimidine-3-carbonitrile] | 35
9 | Cc1nnc(C2CCC2c2nc3c(c(C#N)nn3C(C)c3ccc(C(F)(F)F)nc3)c(=O)[nH]2)o1 (single isomer, unassigned) [Example 1, 6-(2-(5-methyl-1,3,4-oxadiazol-2-yl)cyclobutyl)-4-oxo-1-(1-(6-(trifluoromethyl)pyridin-3-yl)ethyl)-4,5-dihydro-1H-pyrazolo[3,4-d]pyrimidine-3-carbonitrile] | 28.9
10 | C[C@@H](c1ccc(C(F)(F)F)nc1)n1nc(C#N)c2c(=O)[nH]c(C3CCC3c3ccc(F)cn3)nc21 (single isomer, unassigned) [Example 13] | 608
11 | C[C@@H](c1ccc(C(F)(F)F)nc1)n1nc(C#N)c2c(=O)[nH]c(C3CCC3n3cc(C4CC4)cn3)nc21 (single isomer, unassigned) [Example 38] | 11
12 | C[C@@H](c1ccc(C(F)(F)F)nc1)n1nc(C#N)c2c(=O)[nH]c(C3CCC3c3ncccc3F)nc21 (single isomer, unassigned) [Example 16] | 0.461
13 | C[C@@H](c1ccc(C(F)(F)F)nc1)n1nc(C#N)c2c(=O)[nH]c(C3CCC3c3ccc(F)cn3)nc21 (single isomer, unassigned) [Example 14] | 0.12
14 | C[C@@H](c1ccc(C(F)(F)F)nc1)n1nc(C#N)c2c(=O)[nH]c(C3CCC3n3cc(F)cn3)nc21 (single isomer, unassigned) [Example 35] | 0.402
15 | CC(c1ccc(C(F)(F)F)nc1)n1nc(C#N)c2c(=O)[nH]c(C3CCC3n3ccc(C#N)n3)nc21 (single isomer, unassigned) [Example 28, 6-(2-(3-cyano-1H-pyrazol-1-yl)cyclobutyl)-4-oxo-1-(1-(6-(trifluoromethyl)pyridin-3-yl)ethyl)-4,5-dihydro-1H-pyrazolo[3,4-d]pyrimidine-3-carbonitrile] | 31
16 | Cc1nnc(C2CCC2c2nc3c(c(C#N)nn3C(C)c3ccc(C(F)(F)F)nc3)c(=O)[nH]2)o1 (single isomer, unassigned) [Example 6, 6-(2-(5-methyl-1,3,4-oxadiazol-2-yl)cyclobutyl)-4-oxo-1-(1-(6-(trifluoromethyl)pyridin-3-yl)ethyl)-4,5-dihydro-1H-pyrazolo[3,4-d]pyrimidine-3-carbonitrile] | 42.7
17 | CC(C1CCOCC1)n1nc(C#N)c2c(=O)[nH]c(C3CCC3n3cccn3)nc21 (stereo not shown) [Example 40, 6-(2-(1H-pyrazol-1-yl)cyclobutyl)-4-oxo-1-(1-(tetrahydro-2H-pyran-4-yl)ethyl)-4,5-dihydro-1H-pyrazolo[3,4-d]pyrimidine-3-carbonitrile] | 225
18 | C[C@@H](c1ccc(C(F)(F)F)nc1)n1nc(C#N)c2c(=O)[nH]c(C3CCC3c3cncnc3)nc21 (single isomer, unassigned) [Example 21] | 176
19 | Cc1nnc(C2CCC2c2nc3c(c(C#N)nn3C(C)c3ccc(C(F)(F)F)nc3)c(=O)[nH]2)o1 (single isomer, unassigned) [Example 4, 6-(2-(5-methyl-1,3,4-oxadiazol-2-yl)cyclobutyl)-4-oxo-1-(1-(6-(trifluoromethyl)pyridin-3-yl)ethyl)-4,5-dihydro-1H-pyrazolo[3,4-d]pyrimidine-3-carbonitrile] | 229
20 | Cc1nnc(C2CCC2c2nc3c(c(C#N)nn3C(C)c3ccc(C(F)(F)F)nc3)c(=O)[nH]2)o1 (single isomer, unassigned) [Example 7, 6-(2-(5-methyl-1,3,4-oxadiazol-2-yl)cyclobutyl)-4-oxo-1-(1-(6-(trifluoromethyl)pyridin-3-yl)ethyl)-4,5-dihydro-1H-pyrazolo[3,4-d]pyrimidine-3-carbonitrile] | 167
21 | CC(c1ccc(C(F)(F)F)nc1)n1nc(C#N)c2c(=O)[nH]c(C3CCC3n3cc(C#N)cn3)nc21 (single isomer, unassigned) [Example 25, 6-(2-(4-cyano-1H-pyrazol-1-yl)cyclobutyl)-4-oxo-1-(1-(6-(trifluoromethyl)pyridin-3-yl)ethyl)-4,5-dihydro-1H-pyrazolo[3,4-d]pyrimidine-3-carbonitrile] | 0.35
22 | CC(c1ccc(C(F)(F)F)nc1)n1nc(C#N)c2c(=O)[nH]c(C3CCC3n3ccc(C#N)n3)nc21 (single isomer, unassigned) [Example 29, 6-(2-(3-cyano-1H-pyrazol-1-yl)cyclobutyl)-4-oxo-1-(1-(6-(trifluoromethyl)pyridin-3-yl)ethyl)-4,5-dihydro-1H-pyrazolo[3,4-d]pyrimidine-3-carbonitrile] | 0.256
23 | C[C@@H](c1ccc(C(F)(F)F)nc1)n1nc(C#N)c2c(=O)[nH]c(C3CCC3c3cncnc3)nc21 (single isomer, unassigned) [Example 20] | 0.602
24 | C[C@@H](c1ccc(C(F)(F)F)nc1)n1nc(C#N)c2c(=O)[nH]c(C3CCC3n3cccn3)nc21 (single isomer, unassigned) [Example 37] | 124
25 | CC(c1ccc(C(F)(F)F)nc1)n1nc(C#N)c2c(=O)[nH]c(C3CCC3n3cc(C(F)F)cn3)nc21 (stereo not shown) [Example 45, 6-(2-(4-(difluoromethyl)-1H-pyrazol-1-yl)cyclobutyl)-4-oxo-1-(1-(6-(trifluoromethyl)pyridin-3-yl)ethyl)-4,5-dihydro-1H-pyrazolo[3,4-d]pyrimidine-3-carbonitrile] | 115
26 | C[C@@H](c1ccc(C(F)(F)F)nc1)n1nc(C#N)c2c(=O)[nH]c(C3CCC3c3ccnn3C)nc21 (single isomer, unassigned) [Example 19] | 0.145
27 | CC(C1CCOCC1)n1nc(C#N)c2c(=O)[nH]c(C3CCC3n3cccn3)nc21 (stereo not shown) [Example 46, 6-(2-(1H-pyrazol-1-yl)cyclobutyl)-4-oxo-1-(1-(tetrahydro-2H-pyran-4-yl)ethyl)-4,5-dihydro-1H-pyrazolo[3,4-d]pyrimidine-3-carbonitrile] | 608
28 | C[C@@H](c1ccc(C(F)(F)F)nc1)n1nc(C#N)c2c(=O)[nH]c(C3CCC3c3cncnc3)nc21 (stereo partly drawn) [Example 23, 4-oxo-6-(2-(pyrimidin-5-yl)cyclobutyl)-1-((S)-1-(6-(trifluoromethyl)pyridin-3-yl)ethyl)-4,5-dihydro-1H-pyrazolo[3,4-d]pyrimidine-3-carbonitrile] | 608
